PMC2874658 (Bioorganic & medicinal chemistry letters, 2010)

Tests used:
hPK, M2 (PKM2) = hPK, M2 (PKM2) (Homo sapiens, UniProt P14618); experiment: luminescent pyruvate kinase-luciferase coupled assay; assay type: biochemical; conditions: for potency (in words): PKM2 activation, SAR statement; for activation at 57 µM: read-out: hPK, M2 Max. Res, % activation at 57 μM of compound, luciferase coupled assay
PKM2 = PKM2 (Homo sapiens, UniProt P14618); experiment: steady-state kinetics of PEP and ADP in the PK-LDH coupled assay; assay type: biochemical
Sequence of PKM2 (P14618 whole entry): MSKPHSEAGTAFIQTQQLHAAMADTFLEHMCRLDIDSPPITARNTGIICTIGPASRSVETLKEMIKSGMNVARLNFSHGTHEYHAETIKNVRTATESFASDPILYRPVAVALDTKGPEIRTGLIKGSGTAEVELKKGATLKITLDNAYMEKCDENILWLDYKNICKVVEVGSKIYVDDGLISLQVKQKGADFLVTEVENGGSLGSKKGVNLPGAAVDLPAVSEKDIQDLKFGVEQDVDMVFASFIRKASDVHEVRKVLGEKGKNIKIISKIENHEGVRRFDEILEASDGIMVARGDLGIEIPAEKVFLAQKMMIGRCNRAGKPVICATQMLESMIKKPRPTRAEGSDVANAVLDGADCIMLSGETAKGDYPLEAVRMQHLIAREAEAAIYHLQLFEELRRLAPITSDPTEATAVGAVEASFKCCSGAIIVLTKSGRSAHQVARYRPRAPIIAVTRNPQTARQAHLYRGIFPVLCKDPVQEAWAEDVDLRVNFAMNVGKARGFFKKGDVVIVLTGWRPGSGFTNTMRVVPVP

Sequence of hPK, M2 (PKM2) (P14618 whole entry): as above

With `Cc1cc2c(s1)c1cnn(-c3ccccc3)c(=O)c1n2C` [compound 24] the “potency (in words)” value (hPK, M2 (PKM2)) was “marked loss of potency”.

`Cn1c2ccsc2c2ncn(Cc3ccccc3F)c(=O)c21` [compound 23] was tested, and the activation at 57 µM (hPK, M2 (PKM2)) was < 80%.

For `Cc1cc2[nH]c3c(=O)n(Cc4ccccc4F)ncc3c2s1` [compound 19], the activation at 57 µM (hPK, M2 (PKM2)) was 33%.

`CCCCCn1ncc2c3sc(C)cc3n(C)c2c1=O` [compound 25] was tested, and the “potency (in words)” value (hPK, M2 (PKM2)) was “marked loss of potency”.

In the case of `Cc1cc2c(s1)c1cnn(Cc3ccccc3F)c(=O)c1n2C` [compound 1], the “decrease of KM for PEP” value (PKM2; in the presence of activator versus absence (KM ~ 1.5 mM)) is reported as 10 fold and the Vmax (PKM2; with or without activator) is reported as 255 pmols/min.
